Counter-ions that a name gives are not always drawn.
How the values were obtained:
CCR2 = details: cited from earlier work
[1] = parameters: method as in PMID 21317794, PMID 21486960, PMID 16251299; details: in humans; cited from earlier work
[2] = in rats; cited from earlier work
CCR5 = details: cited from earlier work
[3] = tested on: APAP-induced liver injury; details: cited from earlier work
[4] = tested on: UUO-induced renal fibrosis; assay: Mouse model of UUO-induced renal fibrosis; assay type: in vivo; details: for Reduction of UUO-induced increase in Collagen Volume Fraction (±SEM) vs UUO control: p < 0.05
Experimental: Unilateral ureter obstruction is a commonly used experimental model of kidney injury, in which interstitial inflammation, tubular cell injury/death and fibrosis, ensue. The protocol was approved by Plato BioPharma, Inc. IACUC (PBI; approval number 2013–04). The care and use of animals was conducted in accordance with the NIH Guide for the Care and Use of Laboratory Animals (2010), […] Guidelines on Euthanasia (2007), Office of Laboratory Animal Welfare Institutional Animal Care and Use Committee Guidebook (2002), Public Health Service Policy on Humane Care and Use of Laboratory Animals (2002), PBI standard operating procedures on a) moribund sacrifice, b) vivarium maintenance and animal care, and c) animal handling and dosing. Anesthesia was performed by isoflurane […]; animals were euthanized by diaphragm laceration followed by heart laceration while under isoflurane anesthesia.
Male CD-1 mice (n = 51; 7–8 weeks of age; Charles River Laboratories, USA) were allocated to weight-matched treatment groups on Day -1 (1 day prior to either sham [one group] or permanent right UUO surgery [five groups] via aseptic laparotomy). From Days -1 to 4, mice received phosphate-buffered saline (PBS) IP QD, apart from a positive-control group, which received 1D11 (anti-TGF-beta1 antibody) 3 mg/kg IP QD. From Days 0 to 5, mice received vehicle control (sham surgery, UUO-control and UUO+positive-control groups) or CVC 7 mg/kg/day (CVC7), CVC20 or CVC100 PO BID (S1 Table). The CVC100 group was terminated due to poor clinical condition (6/9 animals died and 3/9 euthanized prior to end of study). […]
In the UUO model, ten images/depth/kidney were assessed in a blinded fashion using Axio Imager.A2 (Zeiss, USA) light microscopy (at 200x magnification to enable 60–70% sampling of renal cortical area) and quantified by a composite Collagen Volume Fraction (CVF [% total area imaged]) score expressed as the average positive stain across three anatomically distinct ([…] apart) tissue sections, or depths, from the obstructed kidney.
In the UUO model, frozen renal cortical tissue biopsies were hydrolyzed and centrifuged, and the supernatant was analyzed by OD absorbance at 560 nm on a SpectraMax® 190 (Molecular Devices, USA). Standard curves for conversion of ODs to concentrations were generated using linear regression and sample concentrations were determined using SoftMax® Pro5 software (Molecular Devices, USA).
In the UUO model, mRNA expression levels in renal cortical tissue were evaluated using the QuantiGene® Plex 2.0 profiling platform (Affymetrix, USA). […]
In the UUO model, data are expressed as mean ±SEM. […]

[5] = CVC 250 nM, murine cryopreserved PBMC ex vivo
[6] = CVC concentrations of 250 nmol/L or higher, mouse monocytes and macrophages ex vivo
[7] = acute APAP-induced liver injury

CCCCOCCOc1ccc(-c2ccc3c(c2)/C=C(/C(=O)Nc2ccc([S@@+]([O-])Cc4cncn4CCC)cc2)CCCN3CC(C)C)cc1 [CVC, cenicriviroc mesylate]
Occupancy for CCR2 (blood and spleen) in proinflammatory monocytes (CCR2; [5]): > 90%
CCR2 occupancy (CCR2; [6]): > 87%
Plasma half-life [1]: 30 to 40 h
Half-life [2]: 4 to 5 h
Occupancy for CCR5 (spleen) in proinflammatory monocytes (CCR5; [5]): 87%
CCR5 occupancy (CCR5; [6]): > 87%
Infiltration of Ly6Chi monocyte-derived macrophages into the liver ([3]; APAP model, preliminary data): significantly decreased
ALT levels relative to vehicle control [3, 7]: significant reduction
Necrotic area relative to vehicle control [3, 7]: significant reduction
Effect on UUO-induced increase in obstructed kidney hydroxyproline content ([4]; CVC7, CVC20 PO BID): did not affect
Reduction of UUO-induced increase in Collagen Volume Fraction (±SEM) vs UUO control ([4]; CVC7 PO BID Days 0-5): 28.6%±8.8
Inhibition of UUO-induced increases in obstructed renal cortical mRNA expression of fibrogenic genes ([4]; CVC7 and CVC20, trend, relative to UUO control): did not reach statistical significance
Reduction of UUO-induced increase in Collagen Volume Fraction (±SEM) vs UUO control ([4]; CVC20 PO BID Days 0-5, single outlier removed): 31.8%±6.8

From publication PMC4922569, “Antifibrotic Effects of the Dual CCR2/CCR5 Antagonist Cenicriviroc in Animal Models of Liver and Kidney Fibrosis” (PLoS ONE, 2016)
